Measurements reported in US20250368635A1, “HETEROARYL DERIVATIVE COMPOUND, AND USES THEREOF” (VORONOI, INC., priority 2022, published 2025).

Columns and labels:
[1] = test system: Ba/F3 cells expressing EGFR L858R/C797S (EGFR LC); experiment: Inhibition of proliferation of Ba/F3 cells expressing EGFR L858R/C797S (CellTiter-Glo, 72 h); format: cell-based; conditions: Mus musculus, BaF3, 72 hours treatment
Description: (§1) The following experiment was performed to evaluate the inhibitory activity of the compounds according to the present invention on the proliferation of Ba/F3 cells expressing EGFR Del19/C797S (EGFR DC) and EGFR L858R/C797S (EGFR LC) mutations.
(§2) Ba/F3 cells were cultured using medium (RPMI-1640) containing 10% fetal bovine serum (FBS) and 5 ng/ml IL-3 (R&D Systems). The transduced Ba/F3 cells were cultured by adding 1 μg/ml puromycin (Invitrogen) to the same medium.
(§3) 24 hours prior to treatment with compounds, 3,000 to 5,000 cells were seeded on a well plate (white clear bottom 96 well plate, Corning). The compounds were diluted in dimethyl sulfoxide (3-fold dilution, total of 12 concentrations) and injected at 1 μl each so that the final concentration was 0.2 nM to 5 μM. After 72 hours post treatment with compounds, living cells were stored at room temperature for 10 minutes using CellTiter-Glo luminescent cell-viability reagent (Promega), and the luminescence intensity thereof was measured using a reader (Synergy Neo, Biotek). Each test was repeated three times. The result values were calculated as a cell growth rate (%) compared to the control group. A graph was created using the GraphPad Prism version 8.3.0 program, and GI50 values were calculated.

[2] = test system: Ba/F3 cells expressing EGFR Del19/C797S (EGFR DC); experiment: Inhibition of proliferation of Ba/F3 cells expressing EGFR Del19/C797S (CellTiter-Glo, 72 h); format: cell-based; conditions: Mus musculus, BaF3, 72 hours treatment
Description: as §1, §2, §3

Compound	GI50 [1] [µM]	GI50 [2] [µM]
COc1cc(N2CCC3(CC2)CCN(C(C)(C)CF)CC3)c(-c2cn(C)nc2F)cc1Nc1cc(N2OCC[C@@H]2c2cccc(F)c2F)ncn1 [Example 1, (R)-6-(3-(2,3-difluorophenyl)isoxazolidin-2-yl)-N-(5-(3-fluoro-1-methyl-1H-pyrazol-4-yl)-4-(9-(1-fluoro-2-methylpropan-2-yl)-3,9-diazaspiro[5.5]undecan-3-yl)-2-methoxyphenyl)pyrimidin-4-amine]	< 0.1	< 0.1
COc1cc(N2CCC3(CC2)CCN(C(C)(C)CF)CC3)c(-c2cnn(C)c2)cc1Nc1cc(N2OCC[C@@H]2c2ccccc2)ncn1 [Example 10, (R)-N-(4-(9-(1-fluoro-2-methylpropan-2-yl)-3,9-diazaspiro[5.5]undecan-3-yl)-2-methoxy-5-(1-methyl-1H-pyrazol-4-yl)phenyl)-6-(3-phenylisoxazolidin-2-yl)pyrimidin-4-amine]	< 0.1	< 0.1
COc1cc(N2CC3(CCN(C(C)(C)CF)CC3)C2)c(-c2cnn(C)c2)cc1Nc1cc(N2OCC[C@@H]2c2cccc(F)c2F)ncn1 [Example 14, (R)-6-(3-(2,3-difluorophenyl)isoxazolidin-2-yl)-N-(4-(7-(1-fluoro-2-methylpropan-2-yl)-2,7-diazaspiro[3.5]nonan-2-yl)-2-methoxy-5-(1-methyl-1H-pyrazol-4-yl)phenyl)pyrimidin-4-amine]	< 0.1	< 0.1
COc1cc(N2CCN(C)CC2)c(-c2ccsc2)cc1Nc1cc(N2OCC[C@@H]2c2cccc(F)c2F)ncn1 [Example 76, (R)-6-(3-(2,3-difluorophenyl)isoxazolidin-2-yl)-N-(2-methoxy-4-(4-methylpiperazin-1-yl)-5-(thiophen-3-yl)phenyl)pyrimidin-4-amine]	–	0.1 to 1
Cn1cc(-c2cc(Nc3cc(N4OCC[C@@H]4c4cccc(F)c4F)ncn3)c3c(c2N2CCOCC2)OCCO3)cn1 [Example 96, (R)-6-(3-(2,3-difluorophenyl)isoxazolidin-2-yl)-N-(7-(1-methyl-1H-pyrazol-4-yl)-8-morpholino-2,3-dihydrobenzo[b][1,4]dioxin-5-yl)pyrimidin-4-amine]	–	0.1 to 1
COc1cc(N2CCN(C)CC2)c(-c2cnn(C)c2)cc1Nc1cc(N2OCC[C@@H]2c2cccc(F)c2F)ncn1 [Example 98, (R)-6-(3-(2,3-difluorophenyl)isoxazolidin-2-yl)-N-(2-methoxy-5-(1-methyl-N-pyrazol-4-yl)-4-(4-methylpiperazin-1-yl)phenyl)pyrimidin-4-amine]	–	< 0.1
COc1cc(N2CCC3(CC2)CCN(C(C)(C)CF)CC3)c(-c2cn(C)nc2F)cc1Nc1cc(N2OCC[C@@H]2c2ccccc2)ncn1 [Example 103, (R)-N-(5-(3-fluoro-1-methyl-1H-pyrazol-4-yl)-4-(9-(1-fluoro-2-methylpropan-2-yl)-3,9-diazaspiro[5.5]undecan-3-yl)-2-methoxyphenyl)-6-(3-phenylisoxazolidin-2-yl)pyrimidin-4-amine]	–	< 0.1
CCOc1cc(N2C[C@@H](C)O[C@@H](C)C2)c(-c2cnn(C)c2)cc1Nc1cc(N2OCC[C@@H]2c2cccc(F)c2F)ncn1 [Example 104, 6-((R)-3-(2,3-difluorophenyl)isoxazolidin-2-yl)-N-(4-((25,6R)-2,6-dimethylmorpholino)-2-ethoxy-5-(1-methyl-1H-pyrazol-4-yl)phenyl)pyrimidin-4-amine]	–	0.1 to 1
CC(C)Oc1cc(N2C[C@H](C)O[C@@H](C)C2)c(-c2cnn(C)c2)cc1Nc1cc(N2OCC[C@@H]2c2cccc(F)c2F)ncn1 [Example 105, 6-((R)-3-(2,3-difluorophenyl)isoxazolidin-2-yl)-N--(4-((2S,6S)-2,6-dimethylmorpholino)-2-isopropoxy-5-(1-methyl-1H-pyrazol-4-yl)phenyl)pyrimidin-4-amine]	–	0.1 to 1
COc1cc(N2C[C@H](C)O[C@@H](C)C2)c(-c2cnn(C)c2)cc1Nc1cc(N2OCC[C@@H]2c2cccc(F)c2F)ncn1 [Example 106, 6-((R)-3-(2,3-difluorophenyl)isoxazolidin-2-yl)-N-(4-((2S,6S)-2,6-dimethylmorpholino)-2-methoxy-5-(1-methyl-1H-pyrazol-4-yl)phenyl)pyrimidin-4-amine]	–	0.1 to 1
COc1cc(N2C[C@@H](C)O[C@@H](C)C2)c(-c2cnn(C)c2)cc1Nc1cc(N2OCC[C@@H]2c2cccc(F)c2F)ncn1 [Example 107, 6-((R)-3-(2,3-difluorophenyl)isoxazolidin-2-yl)-N-(4-((2S,6R)-2,6-dimethylmorpholino)-2-methoxy-5-(1-methyl-1H-pyrazol-4-yl)phenyl)pyrimidin-4-amine]	–	0.1 to 1
COc1cc(N2CCO[C@H](C)C2)c(-c2cnn(C)c2)cc1Nc1cc(N2OCC[C@@H]2c2cccc(F)c2F)ncn1 [Example 108, 6-((R)-3-(2,3-difluorophenyl)isoxazolidin-2-yl)-N-(2-methoxy-5-(1-methyl-1H-pyrazol-4-yl)-4-((R)-2-methylmorpholino)phenyl)py-rimidin-4-amine]	–	0.1 to 1
COc1cc(N2CCC(CN(C)C(C)(C)CF)CC2)c(-c2cnn(C)c2)cc1Nc1cc(N2OCC[C@@H]2c2cccc(F)c2F)ncn1 [Example 110, (R)-6-(3-(2,3-difluorophenyl)isoxazolidin-2-yl)-N-(4-(4-(((1-fluoro-2-methylpropan-2-yl)(methyl)amino)methyl)pi-peridin-1-yl)-2-methoxy-5-(1-methyl-1H-pyrazol-4-yl)phenyl)pyrimidin-4-amine]	–	0.1 to 1
CN1CCN(c2c(-c3cnn(C)c3)cc(Nc3cc(N4OCC[C@@H]4c4cccc(F)c4F)ncn3)c3c2OCO3)CC1 [Example 113, (R)-6-(3-(2,3-difluorophenyl)isoxazolidin-2-yl)-N-(6-(1-methyl-1H-pyrazol-4-yl)-7-(4-methylpiperazin-1-yl)benzo[d][1,3]dioxol-4-yl)pyrimidin-4-amine]	–	< 0.1

The next lines start with the values.

GI50 [1] [µM]	GI50 [2] [µM]	Compound
–	0.1 to 1	COc1cc(N2CCN(C)CC2)c(-c2cnc3ccccc3c2)cc1Nc1cc(N2OCC[C@@H]2c2cccc(F)c2F)ncn1 [Example 78, (R)-6-(3-(2,3-difluorophenyl)isoxazolidin-2-yl)-N-(2-methoxy-4-(4-methylpiperazin-1-yl)-5-(quinolin-3-yl)phenyl)pyrimidin-4-amine]
–	0.1 to 1	COc1cc(N2CCN(C)CC2)c(-c2ccncc2)cc1Nc1cc(N2OCC[C@@H]2c2cccc(F)c2F)ncn1 [Example 79, (R)-6-(3-(2,3-difluorophenyl)isoxazolidin-2-yl)-N-(2-methoxy-4-(4-methylpiperazin-1-yl)-5-(pyridin-4-yl)phenyl)pyrimidin-4-amine]
–	0.1 to 1	COc1cc(N2CCC3(CC2)CN(C)CCO3)c(-c2cnn(C)c2)cc1Nc1cc(N2OCC[C@@H]2c2cccc(F)c2F)ncn1 [Example 83, (R)-6-(3-(2,3-difluorophenyl)isoxazolidin-2-yl)-N-(2-methoxy-5-(1-methyl-1H-pyrazol-4-yl)-4-(4-methyl-1-oxa-4,9-diazaspiro[5.5]undecan-9-yl)phenyl)pyrimidin-4-amine]
–	0.1 to 1	COc1cc(N2CCSCC2)c(-c2cnn(C)c2)cc1Nc1cc(N2OCC[C@@H]2c2cccc(F)c2F)ncn1 [Example 85, (R)-6-(3-(2,3-difluorophenyl)isoxazolidin-2-yl)-N-(2-methoxy-5-(1-methyl-1H-pyrazol-4-yl)-4-thiomorpholinophenyl)pyri-midin-4-amine]
–	< 0.1	COc1cc(N2CCN(C)CC2)c(-c2cnn(C3CC3)c2)cc1Nc1cc(N2OCC[C@@H]2c2cccc(F)c2F)ncn1 [Example 99, (R)-N-(5-(1-cyclopropyl-1H-pyrazol-4-yl)-2-methoxy-4-(4-methylpiperazin-1-yl)phenyl)-6-(3-(2,3-difluorophenyl)isoxazolidin-2-yl)pyrimidin-4-amine]
–	< 0.1	COc1cc(N2CCC(N3CC(OC)C3)CC2)c(-c2cnn(C)c2)cc1Nc1cc(N2OCC[C@@H]2c2cccc(F)c2F)ncn1 [Example 102, (R)-6-(3-(2,3-difluorophenyl)isoxazolidin-2-yl)-N-(2-methoxy-4-(4-(3-methoxyazetidin-1-yl)piperidin-1-yl)-5-(1-methyl-1H-pyrazol-4-yl)phenyl)pyrimidin-4-amine]
–	< 0.1	COc1cc(N2CCC(C)(OC)CC2)c(-c2cnn(C)c2)cc1Nc1cc(N2OCC[C@@H]2c2cccc(F)c2F)ncn1 [Example 109, (R)-6-(3-(2,3-difluorophenyl)isoxazolidin-2-yl)-N-(2-methoxy-4-(4-methoxy-4-methylpiperidin-1-yl)-5-(1-methyl-1H-pyrazol-4-yl)phenyl)pyrimidin-4-amine]
–	0.1 to 1	COc1cc(N2CC3(CCOCC3)C2)c(-c2cnn(C)c2)cc1Nc1cc(N2OCC[C@@H]2c2cccc(F)c2F)ncn1 [Example 111, (R)-6-(3-(2,3-difluorophenyl)isoxazolidin-2-yl)-N-(2-methoxy-5-(1-methyl-1H-pyrazol-4-yl)-4-(7-oxa-2-azaspiro[3.5]nonan-2-yl)phenyl)pyrimidin-4-amine]
–	0.1 to 1	CN1CCN(C2CCN(c3c(-c4cnn(C)c4)cc(Nc4cc(N5OCC[C@@H]5c5cccc(F)c5F)ncn4)c4c3CCO4)CC2)CC1 [Example 112, (R)-6-(3-(2,3-difluorophenyl)isoxazolidin-2-yl)-N-(5-(1-methyl-1H-pyrazol-4-yl)-4-(4-(4-methylpiperazin-1-yl)piperidin-1-yl)-2,3-dihydrobenzofuran-7-yl)pyrimidin-4-amine]
